≈ marks a conversion by molar mass, not a printed value.
Assays:
[1] = Hemolytic activity against New Zealand white rabbit RBC assessed as hemoglobin release measured after 1 hr; format: ADME, cell-based, Oryctolagus cuniculus, Erythrocyte; details: red blood cells
[2] = system: Mycolicibacterium smegmatis; assay: Antimycobacterial activity against Mycobacterium smegmatis MC2 155 after 24 hrs by broth dilution assay; format: functional; details: str. MC2 155, 24 h
[3] = Cytotoxicity against human corneal fibroblasts assessed as increase in LDH level measured after 4 hrs by Cytotox-one […] assay; format: toxicity, Corneal fibroblast
CYP2C19 = CYP2C19 (Homo sapiens, UniProt P33261); assay: Inhibition of CYP2C19 in human liver microsomes at 10 uM using omeprazole as substrate preincubated for 5 min followed by NADPH addition measured after 10 mins by LC-MS/MS method relative to control; format: ADME; details: probe omeprazole
[4] = Half life in rat liver microsomes at 1 uM preincubated for 5 mins followed by NADPH addition measured by LC-MS/MS method; format: ADME
CYP2D6 = CYP2D6 (Homo sapiens, UniProt P10635); assay: Inhibition of CYP2D6 in human liver microsomes at 10 uM using bufuralol as substrate preincubated for 5 min followed by NADPH addition measured after 10 mins by LC-MS/MS method relative to control; format: ADME; details: probe bufuralol
[5] = Cytotoxicity against human corneal fibroblasts assessed as reduction in ATP level measured after 4 hrs by Celltiter-Glo luminescent assay; format: toxicity, Corneal fibroblast
CYP3A4 = CYP3A4 (Homo sapiens, UniProt P08684); assay: Inhibition of CYP3A4 in human liver microsomes at 10 uM using midazolam as substrate preincubated for 5 min followed by NADPH addition measured after 10 mins by LC-MS/MS method relative to control; format: ADME; details: probe midazolam
[6] = Drug metabolism in rat liver microsomes at 1 uM preincubated for 5 mins followed by NADPH addition measured up to 30 mins by LC-MS/MS method; format: ADME; details: read-out: Drug metabolism
[7] = system: Mycolicibacterium smegmatis; assay: Antimycobacterial activity against Mycobacterium smegmatis MC2 155 assessed as inhibition of respiratory ATP synthesis by measuring ATP level at 4 times MIC measured after 1 hr by luciferase reporter gene assay (reference value: 90.6%); format: functional, str. MC2 155; parameters: scale not given: the % may be the effect or the level left
[8] = system: Mycolicibacterium smegmatis; assay: Antimycobacterial activity against Mycobacterium smegmatis MC2 155 assessed as inhibition of respiratory ATP synthesis by measuring ATP level at 4 times MIC measured after 6 hrs by luciferase reporter gene assay (reference value: 212.7%); format: functional, str. MC2 155; parameters: scale not given: the % may be the effect or the level left
[9] = system: Mycolicibacterium smegmatis; assay: Antimycobacterial activity against Mycobacterium smegmatis MC2 155 assessed as inhibition of respiratory ATP synthesis by measuring ATP level at 4 times MIC measured after 6 hrs by luciferase reporter gene assay (reference value: 152%); format: functional, str. MC2 155; parameters: scale not given: the % may be the effect or the level left
[10] = system: Mycolicibacterium smegmatis; assay: Antimycobacterial activity against Mycobacterium smegmatis MC2 155 assessed as inhibition of respiratory ATP synthesis by measuring ATP level at 2 times MIC measured after 3 hrs by luciferase reporter gene assay (reference value: 158.3%); format: functional, str. MC2 155; parameters: scale not given: the % may be the effect or the level left
Staphylococcus aureus [11] = assay: Antibacterial activity against Staphylococcus aureus isolate DM4001; format: functional
Staphylococcus aureus [12] = assay: Antibacterial activity against methicillin-resistant Staphylococcus aureus isolate DM21455; format: functional
[13] = Selectivity index, ratio of CC50 for human corneal fibroblasts assessed as reduction in ATP level to MIC90 for Mycobacterium bovis BCG ATCC 35734
[14] = Selectivity index, ratio of CC50 for human corneal fibroblasts assessed as reduction in ATP level to MIC90 for Mycobacterium smegmatis MC2 155
[15] = system: Mycolicibacterium smegmatis; assay: Antimycobacterial activity against Mycobacterium smegmatis MC2 155 assessed as inhibition of respiratory ATP synthesis by measuring ATP level at 800 ug/ml measured after 1 hr by luciferase reporter gene assay (reference value: 90.6%); format: functional, str. MC2 155; parameters: scale not given: the % may be the effect or the level left
[16] = system: Mycolicibacterium smegmatis; assay: Antimycobacterial activity against Mycobacterium smegmatis MC2 155 assessed as inhibition of respiratory ATP synthesis by measuring ATP level at 800 ug/ml measured after 3 hrs by luciferase reporter gene assay (reference value: 158.3%); format: functional, str. MC2 155; parameters: scale not given: the % may be the effect or the level left
[17] = system: Mycolicibacterium smegmatis; assay: Antimycobacterial activity against Mycobacterium smegmatis MC2 155 assessed as inhibition of respiratory ATP synthesis by measuring ATP level at 800 ug/ml measured after 6 hrs by luciferase reporter gene assay (reference value: 152%); format: functional, str. MC2 155; parameters: scale not given: the % may be the effect or the level left
[18] = system: Mycolicibacterium smegmatis; assay: Antimycobacterial activity against Mycobacterium smegmatis MC2 155 assessed as inhibition of respiratory ATP synthesis by measuring ATP level at 800 ug/ml measured after 9 hrs by luciferase […] assay (reference value: 212.7%); format: functional, str. MC2 155; parameters: scale not given: the % may be the effect or the level left

Sequence of CYP3A4 (P08684 whole entry): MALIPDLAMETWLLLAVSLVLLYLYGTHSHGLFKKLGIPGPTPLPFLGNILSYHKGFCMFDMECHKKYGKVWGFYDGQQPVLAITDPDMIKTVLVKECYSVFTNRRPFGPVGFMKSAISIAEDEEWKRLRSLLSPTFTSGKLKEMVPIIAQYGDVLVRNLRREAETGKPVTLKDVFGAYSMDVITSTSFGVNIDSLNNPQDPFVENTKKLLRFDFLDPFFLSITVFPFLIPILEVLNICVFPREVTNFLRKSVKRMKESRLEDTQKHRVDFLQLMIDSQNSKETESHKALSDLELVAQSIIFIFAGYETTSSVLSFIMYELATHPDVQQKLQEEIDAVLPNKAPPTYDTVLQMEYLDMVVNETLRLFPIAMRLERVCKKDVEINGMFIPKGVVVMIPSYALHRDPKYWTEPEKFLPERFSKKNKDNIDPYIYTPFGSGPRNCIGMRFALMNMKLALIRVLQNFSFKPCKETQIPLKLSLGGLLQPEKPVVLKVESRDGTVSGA
Sequence of CYP2D6 (P10635 whole entry): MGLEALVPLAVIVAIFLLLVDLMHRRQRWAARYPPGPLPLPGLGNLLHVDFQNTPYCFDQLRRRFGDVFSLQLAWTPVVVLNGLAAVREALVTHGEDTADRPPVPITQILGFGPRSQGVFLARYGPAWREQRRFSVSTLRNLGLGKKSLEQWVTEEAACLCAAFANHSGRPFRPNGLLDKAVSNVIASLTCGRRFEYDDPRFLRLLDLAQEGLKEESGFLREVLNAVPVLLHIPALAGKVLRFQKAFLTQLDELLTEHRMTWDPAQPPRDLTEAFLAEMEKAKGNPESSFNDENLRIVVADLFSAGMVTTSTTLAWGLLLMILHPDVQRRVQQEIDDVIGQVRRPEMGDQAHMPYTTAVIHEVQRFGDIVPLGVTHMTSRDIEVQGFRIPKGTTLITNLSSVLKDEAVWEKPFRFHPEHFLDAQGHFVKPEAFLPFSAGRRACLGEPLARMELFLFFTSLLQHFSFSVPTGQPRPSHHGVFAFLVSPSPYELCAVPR
Sequence of CYP2C19 (P33261 whole entry): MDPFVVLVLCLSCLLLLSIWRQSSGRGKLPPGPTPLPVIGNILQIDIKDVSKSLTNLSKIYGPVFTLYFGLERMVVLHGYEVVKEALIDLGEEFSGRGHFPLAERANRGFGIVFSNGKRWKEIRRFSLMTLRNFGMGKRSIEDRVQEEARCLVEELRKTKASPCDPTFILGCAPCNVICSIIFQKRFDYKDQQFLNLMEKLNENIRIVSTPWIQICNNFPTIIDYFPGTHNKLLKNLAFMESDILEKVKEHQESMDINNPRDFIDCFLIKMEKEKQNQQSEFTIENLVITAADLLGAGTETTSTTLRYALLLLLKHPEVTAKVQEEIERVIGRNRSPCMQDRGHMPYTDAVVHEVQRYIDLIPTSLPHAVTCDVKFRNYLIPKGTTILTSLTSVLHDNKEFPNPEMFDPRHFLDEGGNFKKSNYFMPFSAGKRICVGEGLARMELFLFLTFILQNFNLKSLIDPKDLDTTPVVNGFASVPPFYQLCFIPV

SMILES: COc1c(OCCCCN2CCSCC2)cc2oc3cc(OCCCCN4CCSCC4)c(CC=C(C)C)c(O)c3c(=O)c2c1CC=C(C)C
- HC50 at 1 h [1]: > 276 µM
- MIC90 [2]: > 30 µM

SMILES: COC(=O)C(Cc1cnc[nH]1)NC(=O)COc1cc2oc3cc(OCC(=O)NC(Cc4cnc[nH]4)C(=O)OC)c(OC)c(CC=C(C)C)c3c(=O)c2c(O)c1CC=C(C)C (stereo not drawn)
- HC50 at 1 h [1]: > 241 µM
- MIC90 [2]: > 30 µM

SMILES: CCCN(CCC)CC(O)COc1cc2oc3cc(OCC(O)CN(CCC)CCC)c(OC)c(CC=C(C)C)c3c(=O)c2c(O)c1CC=C(C)C (stereo not drawn)
- HC50 at 1 h [1]: > 276 µM
- MIC90 [2]: > 30 µM

SMILES: CCN(CC)CCCOc1cc2oc3cc(OCCCN(CC)CC)c(OC)c(CC=C(C)C)c3c(=O)c2c(O)c1CC=C(C)C
- MIC90 [2]: 3.2 µM (≈ 2.04 µg/mL)

SMILES: CCN(CC)CCOc1cc2oc3cc(OCCN(CC)CC)c(OC)c(CC=C(C)C)c3c(=O)c2c(O)c1CC=C(C)C
- CC50 at 4 h [3]: 92.6 µM
- inhibition at 10 min, 10 µM (CYP2C19): 16%
- HC50 at 1 h [1]: > 328 µM
- half-life at 1 µM [4]: 12 min
- inhibition at 10 min, 10 µM (CYP2D6): 28%
- MIC90 [2]: 3.2 µM (≈ 1.95 µg/mL)
- CC50 at 4 h [5]: 44.1 µM
- inhibition at 10 min, 10 µM (CYP3A4): 20%
- metabolised at 0.5 h, 1 µM [6]: 82.8%

SMILES: CC[C@@H](CO)NCCN[C@@H](CC)CO [ETHAMBUTOL]
- Activity [7]: 113.5%
- MIC90 [2]: 1.25 µM (≈ 0.255 µg/mL)
- Activity [8]: 79.7%
- Activity [9]: 71.3%
- Activity [10]: 13.1%

SMILES: COC(=O)C(CCCNC(=N)N)NC(=O)COc1cc2oc3cc(OCC(=O)NC(CCCNC(=N)N)C(=O)OC)c(OC)c(CC=C(C)C)c3c(=O)c2c(O)c1CC=C(C)C (stereo not drawn)
- MIC (Staphylococcus aureus [11]): 3.5 µM (≈ 3.03 µg/mL)
- CC50 at 4 h [3]: 13.4 µM
- inhibition at 10 min, 10 µM (CYP2C19): 1%
- HC50 at 1 h [1]: 309 µM
- half-life at 1 µM [4]: > 30 min
- inhibition at 10 min, 10 µM (CYP2D6): 11%
- MIC90 [2]: > 30 µM
- CC50 at 4 h [5]: 13.7 µM
- inhibition at 10 min, 10 µM (CYP3A4): 36%
- MIC (Staphylococcus aureus [12]): 2.5 µM (≈ 2.17 µg/mL)
- metabolised at 0.5 h, 1 µM [6]: 12.6%

SMILES: CCN(CC)CCCCCCCOc1cc2oc3cc(OCCCCCCCN(CC)CC)c(OC)c(CC=C(C)C)c3c(=O)c2c(O)c1CC=C(C)C
- Selectivity Index [13]: 15 - 40
- CC50 at 4 h [3]: > 150 µM
- inhibition at 10 min, 10 µM (CYP2C19): 16%
- HC50 at 1 h [1]: 86 µM
- half-life at 1 µM [4]: > 30 min
- inhibition at 10 min, 10 µM (CYP2D6): 6%
- Selectivity Index [14]: 15 - 40
- MIC90 [2]: 6.4 µM (≈ 4.79 µg/mL)
- CC50 at 4 h [5]: 95.1 µM
- inhibition at 10 min, 10 µM (CYP3A4): 3%
- metabolised at 0.5 h, 1 µM [6]: 13.9%

SMILES: CCCCN(CC)CCCCOc1cc2oc3cc(OCCCCN(CC)CCCC)c(OC)c(CC=C(C)C)c3c(=O)c2c(O)c1CC=C(C)C
- HC50 at 1 h [1]: > 277 µM
- MIC90 [2]: > 30 µM

SMILES: CO[C@H]1/C=C/O[C@@]2(C)Oc3c(C)c(O)c4c(O)c(c(/C=N/N5CCN(C)CC5)c(O)c4c3C2=O)NC(=O)/C(C)=C\C=C\[C@H](C)[C@H](O)[C@@H](C)[C@@H](O)[C@@H](C)[C@H](OC(C)=O)[C@@H]1C [RIFAMPIN]
- Activity [7]: 123.4%
- MIC90 [2]: 2.5 µM (≈ 2.06 µg/mL)
- Activity [9]: 66.5%
- Activity [10]: 95.6%

SMILES: COc1c(OCC(=O)NC(CCCNC(=N)N)C(N)=O)cc2oc3cc(OCC(=O)NC(CCCNC(=N)N)C(N)=O)c(CC=C(C)C)c(O)c3c(=O)c2c1CC=C(C)C (stereo not drawn)
- CC50 at 4 h [3]: 119 µM
- inhibition at 10 min, 10 µM (CYP2C19): 3%
- HC50 at 1 h [1]: 183 µM
- half-life at 1 µM [4]: > 30 min
- inhibition at 10 min, 10 µM (CYP2D6): 2%
- MIC90 [2]: > 30 µM
- CC50 at 4 h [5]: 60.1 µM
- inhibition at 10 min, 10 µM (CYP3A4): 42%
- metabolised at 0.5 h, 1 µM [6]: 14.4%

SMILES: O=C(CC(=O)C(F)(F)F)c1cccs1
- Activity [15]: 36.8%
- Activity [16]: 25.8%
- Activity [17]: 17.4%
- Activity [18]: 26.3%

SMILES: CCN(CC)CCCCOc1cc2oc3cc(OCCCCN(CC)CC)c(OC)c(CCC(C)C)c3c(=O)c2c(O)c1CCC(C)C
- MIC90 [2]: 6.4 µM (≈ 4.28 µg/mL)
